Columns and labels:
[1] = target: T1, ZIKV NS5 polymerase (Zika virus, UniProt A0A024B7W1); assay: Polymerase activity assay (non-radioactive primer extension); type: biochemical; conditions: NS5 20 nM, Primer/Template 10 nM, 2 h at 37 °C, quantified by amount of RNA products; read-out: IC50 of RdRp-catalyzed RNA synthesis
T1 construct: NS5 (amino acids 1 to 903); His tag (8x histidine) (N); made in house; host or cells: Escherichia coli (Rosetta)
Protocol: ZIKV NS5 polymerase activity was determined using a primer extension reaction with a fluorescently labeled RNA primer/RNA template complex (P/T) as described by Lu et al.. Briefly, fluorescently labeled oligonucleotide primer (Cy5-RNA) and unlabeled RNA template were mixed and then slowly cooled down for annealing. A typical primer extension reaction was performed by ZIKV NS5 polymerase at various concentrations, followed by incubation for 2 h at 37 °C. To determine the inhibitory activity of fidaxomicin, the polymerase reactions were initiated by addition of fidaxomicin at gradient concentrations ranging between 0 and 200 μM. The products were detected by denaturing polyacrylamide gel electrophoresis (Urea PAGE), and the results were scanned using an Odyssey infrared imaging system (LI-COR Biosciences, Lincoln, NE). The images were analyzed, and proper RNA bands were quantified using Image J software version 1.52a (NIH, Bethesda, MD, USA).

[2] = in vivo, po; cited from earlier work
[3] = system: STAT2 degradation induced by NS5; assay: Western blotting of STAT2 in 293T cells transfected with ZIKV NS5; type: cell-based, human
Protocol: Tissue specimens obtained from mice or cells were lysed with RIPA lysis buffer (Millipore, Bedford, MA) containing a cocktail of protease and phosphatase inhibitors (Sigma-Aldrich, St. Louis, MO, USA). Protein concentrations were measured with a bicinchoninic acid (BCA) protein assay (Thermo Fisher Scientific, Rockford, IL, USA). Protein samples were separated by sodium dodecyl sulfate-polyacrylamide gel electrophoresis (SDS-PAGE) and transferred onto a polyvinylidene difluoride (PVDF) membrane. Non-specific antibody binding sites were blocked with 5% non-fat milk in Tris-buffered saline (TBS) (20 mM Tris-HCl [pH 7.6], 135 mM NaCl, and 0.1% Tween 20) for 1 h at room temperature and then incubated with the following primary antibodies: anti-STAT2 (1:1000, sc166201, Santa Cruz Biotechnology, Santa Cruz, CA, USA), anti-ZIKV E (1:1000, BF-1176-56, BioFront Technologies, Tallahassee, USA), anti-ZIKV NS5 (1:1000, BF-6A1-100UG, BioFront), and anti-ZIKV NS3 (1:1000, GTX133309, GeneTex, Alton Pkwy, Irvine, CA, USA). Anti-GAPDH (1:2000, ab181602, Abcam, Cambridge, MA, USA) or mouse anti-GAPDH (1:1000, ab9484, Abcam) was used as a loading control. […] The relative protein level was quantified by densitometry and normalized to GAPDH or mGAPDH level using Image J software (NIH, Bethesda, MD, USA).

[4] = parameters: method as in PMID 22752858; conditions: rats; cited from earlier work
[5] = target: T2, ZIKV RdRp protein (Zika virus, UniProt A0A024B7W1); assay: SPR (BIAcore) binding to ZIKV RdRp protein
T2 construct: RdRp (amino acids 272 to 903); His tag (8x histidine) (N); made in house; host or cells: Escherichia coli (Rosetta)
Protocol: The cDNA fragment of ZIKV (ZG-01 strain) NS5 (amino acids 1 to 903), RdRp (amino acids 272 to 903), or DENV2 NS5 (amino acids 1 to 900) containing an N-terminal His tag sequence was cloned into a pET-30a-mutant vector. For protein expression, the plasmids were transformed into Rosetta™ competent cells (TIANGEN BIOTECH Co., Ltd., Beijing, China), respectively. […] Mass spectrometry was performed by Shanghai Applied Protein Technology Co. Ltd. (Shanghai, China). The concentration of a targeted protein was measured by SDS-PAGE using BSA (Sigma, St. Louis, MO) as a standard.
Surface plasmon resonance (SPR) experiments were performed in a BIAcore T100 device (BIAcore Inc., Uppsala, Sweden) using CM5 sensor chips (General Electric Company, GE) according to the protocol provided by the manufacturer. Briefly, recombinant ZIKV NS5 protein, RdRp protein, or DENV2 NS5 protein was immobilized on a CM5 chip, respectively. Different concentrations of fidaxomicin or ribavirin were injected at a flow rate of 30 μL/min for 3 min. Subsequently, data were collected for a 3-min association followed by a 20-min dissociation. The chip was regenerated by injecting 10 μL of 15 mM NaOH for 20 s. All procedures were run in 1% DMSO PBS-P20 (GE) as a running buffer. The binding kinetics was analyzed with the software BIAevaluation version 3.1 using a 1:1 Langmuir binding model. The Kd was calculated as previously described.

T2 sequence (A0A024B7W1 2792-3423): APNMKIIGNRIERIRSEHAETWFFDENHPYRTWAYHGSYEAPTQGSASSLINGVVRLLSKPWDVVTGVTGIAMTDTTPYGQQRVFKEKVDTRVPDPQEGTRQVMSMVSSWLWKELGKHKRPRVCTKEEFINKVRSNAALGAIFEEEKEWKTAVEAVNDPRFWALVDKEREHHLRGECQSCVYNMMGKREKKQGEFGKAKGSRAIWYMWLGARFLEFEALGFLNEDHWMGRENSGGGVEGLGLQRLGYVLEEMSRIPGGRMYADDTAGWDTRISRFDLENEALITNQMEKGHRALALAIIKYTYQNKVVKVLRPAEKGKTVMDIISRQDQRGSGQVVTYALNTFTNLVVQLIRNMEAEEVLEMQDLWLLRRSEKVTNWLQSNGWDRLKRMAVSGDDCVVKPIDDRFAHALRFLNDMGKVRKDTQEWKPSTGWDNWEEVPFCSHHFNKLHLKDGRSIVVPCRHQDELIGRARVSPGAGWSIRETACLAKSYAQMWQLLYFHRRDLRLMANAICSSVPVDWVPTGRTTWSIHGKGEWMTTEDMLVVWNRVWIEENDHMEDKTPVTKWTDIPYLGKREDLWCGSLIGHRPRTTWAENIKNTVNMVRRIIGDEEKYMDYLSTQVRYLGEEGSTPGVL
T1 sequence (A0A024B7W1 2521-3423): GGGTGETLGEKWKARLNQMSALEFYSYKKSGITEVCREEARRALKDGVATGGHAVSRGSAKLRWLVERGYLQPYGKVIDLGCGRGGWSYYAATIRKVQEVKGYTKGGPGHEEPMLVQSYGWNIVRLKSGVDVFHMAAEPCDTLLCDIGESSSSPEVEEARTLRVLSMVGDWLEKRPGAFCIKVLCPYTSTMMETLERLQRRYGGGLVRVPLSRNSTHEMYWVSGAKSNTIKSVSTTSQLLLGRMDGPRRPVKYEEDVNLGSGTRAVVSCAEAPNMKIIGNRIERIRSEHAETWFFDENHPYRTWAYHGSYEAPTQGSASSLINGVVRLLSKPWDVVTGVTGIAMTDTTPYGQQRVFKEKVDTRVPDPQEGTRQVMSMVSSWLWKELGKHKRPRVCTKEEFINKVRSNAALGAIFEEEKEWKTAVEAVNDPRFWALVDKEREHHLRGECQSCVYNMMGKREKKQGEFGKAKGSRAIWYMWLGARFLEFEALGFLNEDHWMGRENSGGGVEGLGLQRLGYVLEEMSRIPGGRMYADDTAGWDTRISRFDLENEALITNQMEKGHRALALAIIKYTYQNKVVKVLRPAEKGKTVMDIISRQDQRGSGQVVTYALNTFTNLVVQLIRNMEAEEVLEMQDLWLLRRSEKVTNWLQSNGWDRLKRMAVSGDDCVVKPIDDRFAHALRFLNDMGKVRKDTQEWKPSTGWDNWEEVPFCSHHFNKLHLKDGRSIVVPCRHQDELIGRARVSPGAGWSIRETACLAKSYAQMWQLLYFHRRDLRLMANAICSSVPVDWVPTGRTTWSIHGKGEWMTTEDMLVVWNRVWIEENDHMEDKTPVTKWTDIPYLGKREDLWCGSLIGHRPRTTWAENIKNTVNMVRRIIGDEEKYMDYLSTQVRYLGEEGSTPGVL

Question: What does the source list for `CCc1c(Cl)c(O)c(Cl)c(O)c1C(=O)O[C@H]1[C@H](O)[C@H](OC)[C@H](OC/C2=C\C=C\C[C@H](O)/C(C)=C/[C@H](CC)[C@@H](O[C@@H]3OC(C)(C)[C@@H](OC(=O)C(C)C)[C@H](O)[C@@H]3O)/C(C)=C/C(C)=C/C[C@@H]([C@@H](C)O)OC2=O)O[C@@H]1C` [Fidaxomicin]?
Answer: IC50 [1]: 10.9 µM; absorption through the gastrointestinal tract [2]: minimally absorbed; plasma concentration [2]: nanogram-per-milliliter scale; effect on STAT2 degradation in presence of NS5 [3]: did not prevent the degradation of STAT2; No Observed Adverse Effect Level (NOAEL) [4]: 62.5 mg/kg; Kd [5]: 23.2 µM; binding to ZIKV RdRp protein (SPR) ([5]; qualitative): strong, clear binding
